Values of other authors, collected in patent US20100166887A1, “DIBENZO[b,e][1,4]DIAZEPINE MODULATORS OF DOPAMINE RECEPTORS, SEROTONIN RECEPTORS, ADRENERGIC RECEPTORS, ACETYLCHOLINE RECEPTORS, AND/OR HISTAMINE RECEPTORS” (Auspex Pharmaceuticals, Inc., priority 2008, published 2010).

Biological target: human ether-a-gogo related gene (hERG) potassium channel (Homo sapiens, UniProt Q12809)
Conditions: Pearlstein et al., J. Med. Chem., 2003

human ether-a-gogo related gene (hERG) potassium channel, sequence (Q12809 whole entry): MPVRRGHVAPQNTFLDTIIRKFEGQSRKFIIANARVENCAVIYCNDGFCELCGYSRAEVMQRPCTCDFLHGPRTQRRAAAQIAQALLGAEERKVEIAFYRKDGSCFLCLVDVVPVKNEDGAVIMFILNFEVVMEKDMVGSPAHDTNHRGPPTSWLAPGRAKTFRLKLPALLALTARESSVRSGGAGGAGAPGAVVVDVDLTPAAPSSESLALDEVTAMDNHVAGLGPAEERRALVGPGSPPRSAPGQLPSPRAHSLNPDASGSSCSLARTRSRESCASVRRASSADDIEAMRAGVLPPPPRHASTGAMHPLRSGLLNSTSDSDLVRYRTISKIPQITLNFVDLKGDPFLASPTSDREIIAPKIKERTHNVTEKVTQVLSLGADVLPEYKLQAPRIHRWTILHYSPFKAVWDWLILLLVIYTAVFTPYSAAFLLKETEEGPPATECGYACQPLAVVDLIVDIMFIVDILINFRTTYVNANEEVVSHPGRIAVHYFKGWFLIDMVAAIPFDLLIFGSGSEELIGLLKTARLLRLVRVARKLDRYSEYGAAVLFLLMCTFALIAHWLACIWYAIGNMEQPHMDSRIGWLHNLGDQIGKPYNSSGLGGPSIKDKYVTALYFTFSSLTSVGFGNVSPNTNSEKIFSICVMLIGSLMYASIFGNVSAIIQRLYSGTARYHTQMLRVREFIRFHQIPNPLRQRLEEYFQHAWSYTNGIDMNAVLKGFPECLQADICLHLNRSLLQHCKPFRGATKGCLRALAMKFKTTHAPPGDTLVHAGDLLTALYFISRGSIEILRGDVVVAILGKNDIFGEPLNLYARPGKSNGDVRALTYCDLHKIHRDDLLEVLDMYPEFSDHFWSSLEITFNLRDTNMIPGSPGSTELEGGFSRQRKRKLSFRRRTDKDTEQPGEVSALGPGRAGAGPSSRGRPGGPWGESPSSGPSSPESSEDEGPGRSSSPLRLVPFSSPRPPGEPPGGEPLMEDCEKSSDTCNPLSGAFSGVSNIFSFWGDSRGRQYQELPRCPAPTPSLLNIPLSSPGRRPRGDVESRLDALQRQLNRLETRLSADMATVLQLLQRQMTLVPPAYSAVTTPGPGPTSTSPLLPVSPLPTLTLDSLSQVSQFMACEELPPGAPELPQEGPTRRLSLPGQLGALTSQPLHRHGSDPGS

SMILES: Clc1ccc2c(c1)N=C(N1CCNCC1)c1ccccc1N2 [N-desmethyl clozapine, 8-Chloro-11-(4-piperazino)-5H-dibenzo[b,e][1,4]diazepine]
- inhibition of the hERG potassium channel: inhibits
